Reference: patent US7683168B2, “Compositions of novel opioid compounds and method of use thereof” (priority 2005, dated 2010)

Assays:
[1] = target: T1, δ opioid receptor (Rattus norvegicus, UniProt P33533); assay: radioligand binding, δ opioid receptor, rat brain membranes; conditions: cell marked (rat), tritium-labeled Deltorphin II
T1 construct: tissue Pel-Freeze Biological Inc. (Rogers, Ark.); host or cells: rat whole brain

[2] = tested on: tail-pinch antinociception in mice; conditions: in vivo; for mouse TP % MPE: iv, 10 mg/kg
[3] = target: T2, κ opioid receptor (Cavia porcellus, UniProt P41144); assay: radioligand binding, κ opioid receptor, guinea pig cerebellum; conditions: tritium-labeled U69593
T2 construct: tissue Pel-Freeze Biological Inc. (Rogers, Ark.); host or cells: guinea pig cerebellum
T2 sequence (P41144 whole entry): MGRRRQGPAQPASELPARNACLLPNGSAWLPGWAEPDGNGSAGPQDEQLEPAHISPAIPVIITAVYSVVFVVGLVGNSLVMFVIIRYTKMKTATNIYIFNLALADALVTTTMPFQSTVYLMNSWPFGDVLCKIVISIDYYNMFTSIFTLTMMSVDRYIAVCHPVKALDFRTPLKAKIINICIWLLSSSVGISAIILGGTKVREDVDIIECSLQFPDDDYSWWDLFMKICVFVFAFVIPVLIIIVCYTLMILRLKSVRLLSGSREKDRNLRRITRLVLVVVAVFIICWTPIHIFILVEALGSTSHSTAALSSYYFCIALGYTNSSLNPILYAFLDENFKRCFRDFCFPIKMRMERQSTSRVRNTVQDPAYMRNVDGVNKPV

[4] = tested on: guinea pig ileum; assay: electrically stimulated guinea pig ileum (GPI) ED50; assay type: cell-based; conditions: Cavia porcellus; ED50, inhibition of electrically induced contractions
Experimental: Further the compounds of formula (1) were evaluated for in vitro opioid receptor activity in various receptor systems, including mouse vas deferens (Mouse Vas Deferens ED50), and guinea pig ileum (Guinea Pig Ileum ED50). The assay procedures used for such determinations of receptor activity are set out below.
Intact ileums (about 3 cm length) were removed from guinea pig and suspended with 1 g of tension in a bath chamber as described for the vasa deferentia. The ileums were stimulated with electrical square-wave pulses of 0.1-Hz, 1 msec pulse duration at supramaximal voltage.
The ED50 values were extrapolated from curves showing the dose concentration plotted against the response (J. A. H. Lord, A. A. Waterfield, J. Hughes, H. W. Kosterlitz, Nature 267, 495, (1977)).

[5] = tested on: seizure-like convulsions in mice; assay: mouse seizure-like convulsions; assay type: in vivo
Summary of the method: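 Male CD-1 mice (Charles River, Raleigh, N.C.) of 20-25 g were dosed and watched for one hour to detect seizure-like convulsions mediated by central delta receptors. An event was counted when clonic or tonic/clonic muscle movements involved the whole body, usually followed by brief catalepsy, judged by no attempt to withdraw front paws from a bar 2-3 inches above the floor.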

[6] = target: T3, μ opioid receptor (Rattus norvegicus, UniProt P33535); assay: radioligand binding, μ opioid receptor, rat brain membranes; conditions: cell marked (rat), tritium-labeled DAMGO
T3 construct: tissue Pel-Freeze Biological Inc. (Rogers, Ark.); host or cells: rat whole brain
T3 sequence (P33535 whole entry): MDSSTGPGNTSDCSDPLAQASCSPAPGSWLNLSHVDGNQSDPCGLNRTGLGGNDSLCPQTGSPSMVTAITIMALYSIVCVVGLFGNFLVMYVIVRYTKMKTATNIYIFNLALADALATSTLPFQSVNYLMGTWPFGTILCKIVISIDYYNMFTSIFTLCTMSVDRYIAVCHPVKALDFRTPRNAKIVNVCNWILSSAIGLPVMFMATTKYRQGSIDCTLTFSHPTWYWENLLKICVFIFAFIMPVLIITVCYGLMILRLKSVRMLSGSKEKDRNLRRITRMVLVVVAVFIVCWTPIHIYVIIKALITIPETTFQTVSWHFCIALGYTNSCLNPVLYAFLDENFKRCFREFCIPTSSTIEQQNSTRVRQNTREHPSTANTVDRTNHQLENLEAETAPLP

[7] = tested on: mouse vas deferens; assay: electrically stimulated mouse vas deferens (MVD) ED50; assay type: cell-based; conditions: ED50, inhibition of electrically induced contractions
[8] = target: T4, human delta receptor (Homo sapiens, UniProt P41143); assay: radioligand binding, human delta receptor, HEK-293 cell membranes; conditions: cell not marked (rat), species not given, read-out: δ
T4 construct: purchased Perkin Elmer, Boston, Mass; 6110549; host or cells: HEK-293 cells
T4 sequence (P41143 whole entry): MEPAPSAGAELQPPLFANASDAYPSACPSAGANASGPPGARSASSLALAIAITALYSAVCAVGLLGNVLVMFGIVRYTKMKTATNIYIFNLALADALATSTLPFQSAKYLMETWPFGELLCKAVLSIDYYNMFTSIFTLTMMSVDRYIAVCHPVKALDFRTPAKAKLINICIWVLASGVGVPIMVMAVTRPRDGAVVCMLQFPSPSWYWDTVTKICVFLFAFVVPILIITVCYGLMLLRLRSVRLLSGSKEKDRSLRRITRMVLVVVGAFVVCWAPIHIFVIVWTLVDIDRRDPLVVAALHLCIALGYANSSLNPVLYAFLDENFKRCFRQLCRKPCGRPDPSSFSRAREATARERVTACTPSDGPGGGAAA

[9] = target: T5, human mu opioid receptor (Homo sapiens, UniProt P35372); assay: radioligand binding, human mu opioid receptor, CHO cell membranes; conditions: species not given, read-out: μ
T5 construct: purchased Perkin Elmer, Boston, Mass; 6110535; host or cells: CHO cells
T5 sequence (P35372 whole entry): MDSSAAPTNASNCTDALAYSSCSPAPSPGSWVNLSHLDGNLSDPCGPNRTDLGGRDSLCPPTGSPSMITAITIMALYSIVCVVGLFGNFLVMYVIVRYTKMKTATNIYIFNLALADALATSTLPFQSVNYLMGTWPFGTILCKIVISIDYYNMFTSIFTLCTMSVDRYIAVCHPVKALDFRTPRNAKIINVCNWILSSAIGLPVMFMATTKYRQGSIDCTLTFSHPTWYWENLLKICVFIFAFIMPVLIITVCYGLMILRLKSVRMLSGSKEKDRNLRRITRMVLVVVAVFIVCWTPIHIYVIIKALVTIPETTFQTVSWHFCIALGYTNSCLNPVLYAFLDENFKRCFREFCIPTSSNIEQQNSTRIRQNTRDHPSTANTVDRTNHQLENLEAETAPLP

[10] = rat analgesia; assay type: in vivo

T1 sequence (P33533 whole entry): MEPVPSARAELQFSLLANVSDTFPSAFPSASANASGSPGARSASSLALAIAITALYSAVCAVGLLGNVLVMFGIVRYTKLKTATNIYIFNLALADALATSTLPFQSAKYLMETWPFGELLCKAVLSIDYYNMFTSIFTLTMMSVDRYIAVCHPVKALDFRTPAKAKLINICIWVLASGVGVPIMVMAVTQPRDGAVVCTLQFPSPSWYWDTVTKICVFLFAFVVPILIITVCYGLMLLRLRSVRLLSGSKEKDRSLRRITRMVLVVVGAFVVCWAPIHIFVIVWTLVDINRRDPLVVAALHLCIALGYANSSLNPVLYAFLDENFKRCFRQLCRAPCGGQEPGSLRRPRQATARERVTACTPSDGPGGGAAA

Compound	Ki [1]	Ki [3]	EC50 [4]	Seiz. ([5]; 10 mg/kg IV)	Ki [6]	EC50 [7]	Ki [8]	Ki [9]	also measured
CCOC(=O)CCN1CCCN(C(=O)c2cccc([C@H](c3cccc(O)c3)N3C[C@@H](C)N(Cc4ccccc4)C[C@@H]3C)c2)CC1	1.2 nM	2.98 nM	836 nM	80% 10 mg/kg IV (42% MPE mouse TP)	0.75 nM	1.5 nM			mouse TP % MPE [2]: 80% 10 mg/kg IV (42% MPE mouse TP)
C=CCN1C[C@H](C)N([C@@H](c2cccc(O)c2)c2cccc(C(=O)N3CCCN(CCC(=O)O)CC3)c2)C[C@H]1C	3.03 nM	9.85 nM	117 nM	0% 10 mg/kg IV	3.89 nM	5.39 nM			
C[C@@H]1CN([C@@H](c2cccc(O)c2)c2cccc(C(=O)N3CCCN(CCC(=O)O)CC3)c2)[C@@H](C)CN1Cc1ccccc1	4 nM	3830 nM	52.2 nM		3.9 nM	0.52 nM			Seiz. ([5]; 20 mg/kg IV): 0% 200 mg/kg PO 0% 20 mg/kg IV; Seiz. ([5]; 200 mg/kg PO): 0% 200 mg/kg PO 0% 20 mg/kg IV
C=CCN1C[C@H](C)N(C(c2cccc(O)c2)c2cccc(C(=O)N3CCCN(CC(=O)OCC)CC3)c2)C[C@H]1C (some centres unmarked)	1.35 nM	4.15 nM		25% 10 mg/kg IV	3.33 nM	1.36 nM			
C=CCN1C[C@H](C)N(C(c2ccc(C(=O)N3CCCN(CCCC(=O)OCC)CC3)cc2)c2cccc(O)c2)C[C@H]1C (some centres unmarked)	1.9 nM	1.2 nM	526 nM	0% 10 mg/kg IV	2.6 nM	1.44 nM			
CCOC(=O)C1CCN(C(=O)c2cccc([C@H](c3cccc(O)c3)N3C[C@@H](C)N(Cc4cccc(F)c4)C[C@@H]3C)c2)CC1 [Example 124, 1-{3-[(R)-[(2S,5R)-4-(3-Fluoro-benzyl)-2,5-dimethyl-piperazin-1-yl]-(3-hydroxy-phenyl)-methyl]-benzoyl}-piperidine-4-carboxylic acid ethyl ester]			1680 nM	10% 10 mg/kg IV		2.54 nM	28.6 nM	3.5 nM	
C[C@@H]1CN([C@@H](c2cccc(O)c2)c2cccc(C(=O)N3CCN(CC(=O)O)CC3)c2)[C@@H](C)CN1Cc1ccccc1 [Example 69, (4-{3-[(R)-((2S,5R)-4-Benzyl-2,5-dimethyl-piperazin-1-yl)-(3-hydroxy-phenyl)-methyl]-benzoyl}-piperazin-1-yl)-acetic acid]			47.8 nM	0% 10 mg/kg IV		0.48 nM	0.54 nM	1.36 nM	
C=CCN1C[C@H](C)N(C(c2cccc(O)c2)c2cccc(C(=O)N3CCCN(Cc4ccc(C(=O)O)cc4)CC3)c2)C[C@H]1C (some centres unmarked)			150 nM	0% 10 mg/kg IV		3.1 nM	0.39 nM	4 nM	
CN1CC[C@]23c4c5ccc(O)c4O[C@H]2[C@@H](O)C=C[C@H]3[C@H]1C5 [morphine, reference compound]									maximum time of response in tail-pinch assay ([2]; mouse): 20 s
C=CCN1C[C@H](C)N(C(c2cccc(O)c2)c2cccc(C(=O)N3CCCNCC3)c2)C[C@H]1C (some centres unmarked)	4.68 nM	1.6 nM		45% 10 mg/kg IV	1.61 nM	6.07 nM			
C=CCN1C[C@H](C)N(C(c2cccc(O)c2)c2cccc(C(=O)N3CCCN(C)CC3)c2)C[C@H]1C (some centres unmarked)	5.45 nM	1.93 nM		0%	1.58 nM	26.3 nM			mouse TP % MPE [2]: 0% 10 mg/kg IV (mouse TP- 54% MPE; no rat analg.); rat analg. [10]: no rat analg.
C=CCN1C[C@H](C)N([C@@H](c2cccc(O)c2)c2cccc(C(=O)N3CCN(CCCCC(=O)O)CC3)c2)C[C@H]1C [Example 84, 5-(4-{3-[(R)-((2S,5R)-4-Allyl-2,5-dimethyl-piperazin-1-yl)-(3-hydroxy-phenyl)-methyl]-benzoyl}-piperazin-1-yl)-pentanoic acid]			209 nM	0% 10 mg/kg IV		3.76 nM	13.4 nM	57.3 nM	
C=CCN1C[C@H](C)N([C@@H](c2cccc(O)c2)c2cccc(C(=O)N3CCCN(CCCCC(=O)O)CC3)c2)C[C@H]1C	6.43 nM	27.7 nM		0% 10 mg/kg IV 0% 100 mg/kg SC	9 nM	3.33 nM			Seiz. ([5]; 100 mg/kg SC): 0% 10 mg/kg IV 0% 100 mg/kg SC
CCOC(=O)C1CCN(C(=O)c2cccc([C@H](c3cccc(O)c3)N3C[C@@H](C)N(CC4CC4)C[C@@H]3C)c2)CC1 [Example 126, 1-{3-[(R)-((1S,4R)-4-Cyclopropylmethyl-2,5-dimethyl-piperazin-1-yl)-(3-hydroxy-phenyl)-methyl]-benzoyl}-piperidine-4-carboxylic acid ethyl ester]			3310 nM	10% 10 mg/kg IV		8.64 nM	3.7 nM	1.5 nM	
C[C@@H]1CN([C@@H](c2cccc(O)c2)c2cccc(C(=O)N3CCCN(CCC(=O)O)CC3)c2)[C@@H](C)CN1Cc1cccc(F)c1			154 nM			4 nM	4.17 nM	7.7 nM	Seiz. ([5]; 20 mg/kg IV): 0% 200 mg/kg PO & SC 0% 20 mg/kg IV; Seiz. ([5]; 200 mg/kg PO & SC): 0% 200 mg/kg PO & SC 0% 20 mg/kg IV
C=CCN1C[C@H](C)N(C(c2ccc(C(=O)N3CCCN(CCCC(=O)O)CC3)cc2)c2cccc(O)c2)C[C@H]1C (some centres unmarked)	3.94 nM	29.2 nM	439 nM	0% 10 mg/kg IV 0% 100 mg/kg SC	16.1 nM	0.95 nM			Seiz. ([5]; 100 mg/kg SC): 0% 10 mg/kg IV 0% 100 mg/kg SC
C=CCN1C[C@H](C)N([C@@H](c2cccc(O)c2)c2cccc(C(=O)N3CCCN(CCCCC(=O)OCC)CC3)c2)C[C@H]1C	2.9 nM	0.6 nM	231 nM	0% 10 mg/kg IV	1.25 nM	43.7 nM			
C=CCN1C[C@H](C)N([C@@H](c2cccc(O)c2)c2cccc(C(=O)N3CCC(O)CC3)c2)C[C@H]1C [Example 134, {3-[(R)-((2S,5R)-4-Allyl-2,5-dimethyl-piperazin-1-yl)-(3-hydroxy-phenyl)-methyl]-phenyl}-(4-hydroxy-piperidin-1-yl)-methanone]			46.7 nM	0% 10 mg/kg IV		5.44 nM	0.36 nM	1.1 nM	
CCOC(=O)CN1CCCN(C(=O)c2cccc(C(c3cccc(O)c3)N3C[C@@H](C)N(Cc4ccccc4)C[C@@H]3C)c2)CC1 (some centres unmarked)			526 nM	60% 10 mg/kg IV		2.4 nM	0.21 nM	0.56 nM	
C=CCN1C[C@H](C)N([C@@H](c2cccc(O)c2)c2cccc(C(=O)N3CCCN(CCC(=O)OCC)CC3)c2)C[C@H]1C	0.57 nM	1.09 nM	112 nM	30% 10 mg/kg IV	0.55 nM	5.58 nM			
C=CCN1C[C@H](C)N(C(c2cccc(O)c2)c2cccc(C(=O)N3CCCN(CC(=O)O)CC3)c2)C[C@H]1C (some centres unmarked)	3.53 nM	12.7 nM		10%	3.03 nM	4.7 nM			Seiz. ([5]; 3 mg/kg IV): 0%
C=CCN1C[C@H](C)N([C@@H](c2cccc(O)c2)c2cccc(C(=O)N3CCCN(CCCC(=O)O)CC3)c2)C[C@H]1C	2.75 nM	16.3 nM	186 nM	0% 10 mg/kg IV	5.57 nM	2.2 nM			
C=CCN1C[C@H](C)N([C@@H](c2cccc(O)c2)c2cccc(C(=O)N3CCCN(CCCC(=O)OCC)CC3)c2)C[C@H]1C	1.66 nM	1.22 nM	198 nM	0% 10 mg/kg IV	1.76 nM	22.6 nM			
